Assays:
human D2(long) = human D2(long) (Homo sapiens, UniProt P14416); assay: Competitive radioligand binding at D2 dopamine receptor with 125I-IABN; settings: for D3:D2: Ki for D3 receptors/Ki for D2 receptors; for D4:D2: Ki for D4 receptors/Ki for D2 receptors
human D3 = human D3 (Homo sapiens, UniProt P35462); assay: Competitive radioligand binding at D3 dopamine receptor with 125I-IABN; settings: relative to aripiprazole
human D4 = target: T1, human D4 (Homo sapiens, UniProt P21917); format: binding; settings: human D4 expressed in HEK cells, [125I]ABN radioligand; mean ± SEM, at least three experiments
T1 sequence (P21917 1-419): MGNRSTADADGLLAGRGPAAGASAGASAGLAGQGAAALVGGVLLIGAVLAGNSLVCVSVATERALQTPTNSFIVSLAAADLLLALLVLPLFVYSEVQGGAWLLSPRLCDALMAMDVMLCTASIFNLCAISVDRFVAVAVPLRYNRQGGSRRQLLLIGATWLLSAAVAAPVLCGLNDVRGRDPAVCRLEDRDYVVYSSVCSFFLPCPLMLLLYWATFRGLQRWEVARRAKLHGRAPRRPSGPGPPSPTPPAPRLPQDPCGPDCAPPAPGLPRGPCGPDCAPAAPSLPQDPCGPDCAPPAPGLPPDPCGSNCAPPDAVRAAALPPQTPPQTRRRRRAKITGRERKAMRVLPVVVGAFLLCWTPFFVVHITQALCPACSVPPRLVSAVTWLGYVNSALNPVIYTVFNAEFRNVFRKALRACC

human D2 receptors = human D2 receptors (Homo sapiens, UniProt P14416); assay: Whole cell forskolin-dependent adenylyl cyclase inhibition assay, D2L HEK cells; format: cell-based
Chain of human D2 receptors (P14416 whole entry): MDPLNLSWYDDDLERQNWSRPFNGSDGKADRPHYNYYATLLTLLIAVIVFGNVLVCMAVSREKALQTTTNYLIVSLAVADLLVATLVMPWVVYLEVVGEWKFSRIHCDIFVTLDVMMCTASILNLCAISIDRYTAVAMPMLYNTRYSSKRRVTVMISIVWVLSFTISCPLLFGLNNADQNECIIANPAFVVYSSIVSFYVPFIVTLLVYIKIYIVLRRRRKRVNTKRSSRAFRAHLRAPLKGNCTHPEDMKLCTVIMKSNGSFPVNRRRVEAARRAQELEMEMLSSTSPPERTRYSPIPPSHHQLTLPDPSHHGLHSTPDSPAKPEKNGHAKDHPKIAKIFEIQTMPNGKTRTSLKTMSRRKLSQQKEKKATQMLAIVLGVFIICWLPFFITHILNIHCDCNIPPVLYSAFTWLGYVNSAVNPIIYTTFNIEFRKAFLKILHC

Chain of human D2(long) (P14416 whole entry): as above
Chain of human D3 (P35462 whole entry): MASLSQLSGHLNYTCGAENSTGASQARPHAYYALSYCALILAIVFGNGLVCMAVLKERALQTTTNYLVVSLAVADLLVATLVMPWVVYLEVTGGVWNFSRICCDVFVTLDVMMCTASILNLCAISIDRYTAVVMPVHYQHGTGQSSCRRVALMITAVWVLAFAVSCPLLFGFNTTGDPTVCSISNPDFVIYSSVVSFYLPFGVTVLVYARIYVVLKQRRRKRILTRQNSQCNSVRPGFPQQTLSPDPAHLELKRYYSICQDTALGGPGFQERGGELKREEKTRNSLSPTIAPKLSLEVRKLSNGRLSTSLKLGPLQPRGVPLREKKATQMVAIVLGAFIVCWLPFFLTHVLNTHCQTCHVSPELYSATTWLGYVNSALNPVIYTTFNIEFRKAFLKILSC

| Compound | D3:D2 (human D2(long)) | D4:D2 (human D2(long)) | increase in affinity at D2 receptors (human D2(long); relative to aripiprazole) [fold] | decrease in affinity at D3 receptors (human D3) [fold] | Ki D4 (human D4) | intrinsic efficacy greater at D2 receptors compared to D3 receptors (human D2 receptors) |
| --- | --- | --- | --- | --- | --- | --- |
| O=C(O)C(=O)O.O=C1CCc2ccc(OCCCCN3CCC(n4c(=O)[nH]c5ccccc54)CC3)cc2N1 [Compound 3, 7-(4-(4-(2-Oxo-2,3-dihydro-1H-benzo[d]imidazol-1-yl)-piperidin-1-yl)butoxy)-3,4-dihydroquinolin-2(1H)-one oxalate] | 6.1 | 7.1 | – | – | – | – |
| O=C(O)C(=O)O.O=C1CCc2ccc(OCCCCN3CCC(n4c(=O)[nH]c5cc(Cl)ccc54)CC3)cc2N1 [Compound 4, 7-(4-(4-(5-Chloro-2-oxo-2,3-dihydro-1H-benzo[d]imidazol-1-yl)piperidin-1-yl)butoxy)-3,4-dihydroquinolin-2(1H)-one oxalate] | 1.9 | 4.4 | – | – | – | – |
| CN1CN(c2ccccc2)C2(CCN(CCCCOc3ccc4c(c3)NC(=O)CC4)CC2)C1=O.O=C(O)C(=O)O [Compound 5, 7-(4-(3Methyl-4-oxo-1-phenyl-1,3,8-triazaspiro[4.5]decan-8-yl)butoxy)-3,4-dihydro-quinolin-2(1H)-one oxalate] | 0.7 | 1.4 | – | – | – | – |
| O=C(O)C(=O)O.O=C1CCc2ccc(OCCCCN3CCN(c4ccccc4OCCF)CC3)cc2N1 [Compound 7, 7-(4-(4-(2-(2-Fluoroethoxy)phenyl)piperazin-1-yl)butoxy)-3,4-dihydroquinolin-2(1H)-one oxalate] | – | – | 12 | 2 | low affinity | 16–75% |

From publication PMC3118479 (Bioorganic & medicinal chemistry, 2011)
